# According to publication PMC12728616, “Regioselective Glycosylation of Fluorine-18-Labeled Sorbitol for Enhanced Bacterial Detection In Vivo Using PET” (JACS Au, 2025):
# Experiments:
# [1] = test system: K. pneumoniae; assay: In vitro uptake of 18F-tracers by bacteria; assay type: cell-based, Klebsiella pneumoniae
# Procedure: In vitro evaluation of ^18F-tracers was conducted according to our established procedure. Briefly, bacteria were incubated overnight at 37 °C, subcultured into a fresh medium at an initial OD600 of 0.05, and then allowed to reach the mid log phase (OD600 ∼ 0.4). The cultures were subsequently incubated with ^18F-tracers (final concentration: 0.1 MBq/mL) at 37 °C for 90 min. Subsequently, 300 μL aliquots of these cultures were centrifuged at 13,200 rpm for 6 min. The resulting pellets were washed with 300 μL of phosphate-buffered saline (PBS). The radioactivity of the pellets and supernatants was measured using a gamma counter. Uptake values were normalized to colony-forming units (CFUs).
# [2] = test system: MRSA; assay: PET/CT in MRSA myositis murine model; assay type: in vivo, mice; conditions: for ratio of live/heat-killed S. aureus inoculated sites, in vivo: PET 80 min postinjection (mid time)
# Procedure: We next compared [^18F]-FNT and [^18F]-FMT PET in a S. aureus myositis model. […] To compare the in vivo detection sensitivity of [^18F]-FNT and [^18F]-FMT in a MRSA myositis model, we injected the left deltoid with live MRSA and the right deltoid with 10x heat-killed MRSA, respectively (Figure B).
# All animal procedures were conducted in accordance with UCSF institutional guidelines and were approved by the Institutional Animal Care and Use Committee (IACUC). Female CBA/J mice (9 and 11 weeks old) were used for the study. Pulmonary infection and bacterial myositis models were established based on previously published protocols. , For pulmonary infection, 50 μL of K. pneumoniae (5 × 10^6 CFU) or 10× heat-killed K. pneumoniae were administered intranasally under anesthesia 24 h prior to imaging using PET. After PET scans, infected lungs were homogenized in PBS and plated on LB agar. Plates were incubated overnight at 37 °C to quantify the bacterial burden. […] Immediately following all imaging studies, target tissues were harvested, and radioactivity was measured using a gamma counter.
# μPET/CT imaging was conducted using a nanoScan μPET/CT instrument (PET123S/CT1512, Mediso). Mice were anesthetized with 2% isoflurane/oxygen for intravenous administration of ^18F-tracers (∼5 MBq in 150 μL) via tail vein and maintained during data acquisition. PET data of uninfected mice were acquired in the list mode for 90 min, starting immediately after ^18F-tracer administration, followed by a CT scan. The PET data were reconstructed into three-dimensional volumes and coregistered with CT images using manufacturer-provided software in 53 dynamic frames (15 × 2 s, 6 × 5 s, 6 × 10 s, 4 × 30 s, 6 × 30 s, and 16 × 300 s). PET data of infected mice were acquired for 20 min, starting at 70 min postinjection of ^18F-tracer (mid time 80 min), followed by a CT scan. The list mode PET data were reconstructed into three-dimensional volumes in a single static frame. All PET scans were corrected for ^18F decay, dead time, and random coincidences and reconstructed into a 160 × 160 × 184 matrix with voxel size 0.8 mm using a three-dimensional ordered subject expectation maximization (OSEM) algorithm (40 iterations, 1 subset). Both attenuation and scatter corrections were applied to PET reconstructions using the coregistered CT. ROIs were drawn manually around the brain, lungs, liver, kidney, and urinary bladder using Amide software to generate image-derived TACs. For the estimation of blood pool radioactivity over time, ROIs were drawn on the left atrium. To estimate the plasma half-life of tracers, the TAC of the blood pool was fitted to a two-compartment model using a biexponential decay function: C t(t) = Ae ^–αt + Be ^ ‑βt , where C t(t) is the tracer concentration (% IDcc^–1) at time (t), A and B are the intercepts, and α and β are the distribution and elimination rate constants, respectively. , Quantitative uptake values are expressed as % IDcc^–1, representing the percent of the total injected dose per cubic centimeter. For the S. aureus myositis model, identical volume ROIs were drawn corresponding to the peak uptake of [^18F]-FNT at the live S. aureus inoculated site and heat-killed S. aureus inoculated site, respectively.
SMILES,in vitro uptake [1],"ratio of live/heat-killed S. aureus inoculated sites, in vivo ([2]; MRSA myositis)","ratio of live/heat-killed S. aureus inoculated sites, ex vivo ([2]; MRSA myositis, ex vivo analysis)","uptake at heat-killed sites, dynamic PET ([2]; by 70 min postinjection)","PET signal at live MRSA inoculated deltoid, 10^4 CFU ([2]; inoculum 10^4 CFU, not significant vs uninfected controls (P = 0.2187))",PET signal at sites inoculated with heat-killed MRSA ([2]; static PET/CT 80 min postinjection (mid time))
"OC[C@@H](O)[C@@H](O[C@H]1O[C@H](CO)[C@@H](O)[C@H](O)[C@H]1O)[C@H](O)[C@@H]([18F])CO [[18F]FMT, 2-deoxy-2-[18F]fluoro-D-maltitol]",considerable uptake,6 fold,2.7 fold,–,–,–
"OC[C@@H](O)[C@@H](O)[C@H](O[C@H]1O[C@H](CO)[C@@H](O)[C@H](O)[C@H]1O)[C@@H]([18F])CO [[18F]FNT, 2-deoxy-2-[18F]fluoro-D-nigeritol]",considerable uptake,~28 fold,–,negligible,negligible signals,no detectable signal
